As a reminder, the Ki is the equilibrium dissociation constant of an inhibitor or competing ligand from its target.

Holding throughout (assay type): biochemical
Assay [1] has as its target PKA (Homo sapiens, UniProt P17612). In words: In vitro inhibitory activity assay for PKA, ADP-Glo, reported as selectivity ratio vs ROCK2. To be noted: Ki for PKA divided by Ki of ROCK2 (Method B). Put shortly:
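PKA preincubated 30 min with compound (1% DMSO), then reacted 30 min at 25 °C with 10 μM ATP and 260 μM kemptide in Tris pH7.5/MgCl2/BSA/DTT; ADP-Glo luminescence. IC50 from constrained sigmoidal fit, converted to Ki by Cheng-Prusoff; value given as Ki(PKA)/Ki(ROCK2, Method B).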
Background: In ADP-Glo the light output rises with the ADP produced.

Assay [2] concerns the target T1, ROCK1 (Homo sapiens, UniProt Q13464). Briefly: In vitro Rho kinase inhibitory activity assay, ADP-Glo, Method B (ATP 200 μM). The conditions noted are these: read-out: Method B ROCK 1 (Ki). Put shortly:
(§1)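 Enzyme preincubated 30 min with compound in 40 mM Tris pH 7.5, 20 mM MgCl2, 0.1 mg/mL BSA, 50 μM DTT, 2.5 μM myelin basic protein, 1% DMSO, 25 °C; 1 h reaction at 200 μM ATP. ADP-Glo luminescence; IC50 from variable-slope sigmoidal fit (0–100% fixed), Ki via Cheng-Prusoff.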

Assay [3] concerns the target T2, ROCK2 (Homo sapiens, UniProt O75116). The assay is described as above. The conditions noted are these: read-out: Method B ROCK 2 (Ki). Put shortly: as §1
The target of assay [4] is T1, ROCK1. In words: In vitro Rho kinase inhibitory activity assay, ADP-Glo, Method A (ATP 10 μM). To be noted: read-out: Method A ROCK 1 (Ki). The protocol: (§2) In Vitro Inhibitory Activity Assay Description (Method A)
(§3) The effectiveness of compounds of the present invention to inhibit Rho kinase activity can be determined in a 10 μL assay containing 40 mM Tris pH7.5, 20 mM MgCl2 0.1 mg/mL BSA, 50 μM DTT and 2.5 μM peptide substrate (Myelin Basic Protein) using an ADP-Glo kit (Promega). Compounds were dissolved in DMSO such that the final concentration of DMSO was 1% in the assay. All reactions/incubations are performed at 25° C. Compound (2 μL) and either Rho kinase 1 or 2 (4 μL) were mixed and incubated for 30 min. Reactions were initiated by addition of ATP (4 μL) such that the final concentration of ATP in the assay was 10 μM. After a 1 hour incubation 10 μL of ADP-Glo Reagent was added and after a further 45 minute incubation 20 μL of Kinase Detection Buffer was added and the mixture incubated for a further 30 minutes. The luminescent signal was measured on a luminometer. […] Compounds were tested in dose-response format and the inhibition of kinase activity was calculated at each concentration of compound. To determine the IC50 (concentration of compound required to inhibit 50% of the enzyme activity) data were fit to a plot of % inhibition vs Log10 compound concentration using a sigmoidal fit with a variable slope and fixing the maximum to 100% and the minimum to 0%. To determine the Ki values the Cheng-Prusoff equation was utilized (Ki=IC50/(1+[S]/Km).

In assay [5] the target is T2, ROCK2. The description is as above. The conditions noted are these: read-out: Method A ROCK 2 (Ki). The procedure: as §2, §3

T1 sequence (Q13464 whole entry): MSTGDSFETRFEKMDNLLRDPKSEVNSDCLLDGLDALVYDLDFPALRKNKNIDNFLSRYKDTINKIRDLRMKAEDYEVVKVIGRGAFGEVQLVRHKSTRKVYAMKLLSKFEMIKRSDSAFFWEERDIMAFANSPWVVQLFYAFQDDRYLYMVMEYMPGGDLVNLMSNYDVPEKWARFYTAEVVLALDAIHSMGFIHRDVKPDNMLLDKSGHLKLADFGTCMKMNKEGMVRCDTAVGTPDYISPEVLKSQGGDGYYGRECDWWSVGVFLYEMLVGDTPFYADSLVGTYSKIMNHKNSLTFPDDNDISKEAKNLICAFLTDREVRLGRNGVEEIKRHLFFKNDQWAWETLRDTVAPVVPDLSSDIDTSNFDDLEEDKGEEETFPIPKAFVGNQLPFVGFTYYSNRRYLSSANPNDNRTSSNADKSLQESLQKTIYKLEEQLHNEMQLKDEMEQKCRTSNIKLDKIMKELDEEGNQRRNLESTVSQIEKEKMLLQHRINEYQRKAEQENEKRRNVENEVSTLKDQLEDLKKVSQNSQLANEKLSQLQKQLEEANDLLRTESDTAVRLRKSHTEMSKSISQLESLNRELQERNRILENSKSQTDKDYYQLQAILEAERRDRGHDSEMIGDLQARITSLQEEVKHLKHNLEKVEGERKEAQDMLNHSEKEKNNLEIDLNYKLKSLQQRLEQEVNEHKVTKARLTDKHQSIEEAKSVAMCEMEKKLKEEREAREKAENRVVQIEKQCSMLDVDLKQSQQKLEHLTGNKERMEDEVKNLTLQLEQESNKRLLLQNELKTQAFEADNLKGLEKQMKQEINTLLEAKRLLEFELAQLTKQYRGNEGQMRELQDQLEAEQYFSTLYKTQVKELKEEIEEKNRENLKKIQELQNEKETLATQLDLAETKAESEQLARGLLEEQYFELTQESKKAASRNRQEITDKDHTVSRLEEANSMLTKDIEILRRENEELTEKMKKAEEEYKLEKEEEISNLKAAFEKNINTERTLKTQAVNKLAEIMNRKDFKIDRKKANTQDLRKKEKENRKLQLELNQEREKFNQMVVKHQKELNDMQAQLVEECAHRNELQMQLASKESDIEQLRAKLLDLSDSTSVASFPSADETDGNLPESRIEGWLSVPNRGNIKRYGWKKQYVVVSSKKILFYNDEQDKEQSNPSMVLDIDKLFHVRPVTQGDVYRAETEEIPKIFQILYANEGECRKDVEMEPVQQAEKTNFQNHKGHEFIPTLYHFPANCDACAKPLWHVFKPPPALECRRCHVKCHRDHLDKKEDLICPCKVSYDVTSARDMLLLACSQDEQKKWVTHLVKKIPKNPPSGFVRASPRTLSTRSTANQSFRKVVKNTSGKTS
T2 sequence (O75116 whole entry): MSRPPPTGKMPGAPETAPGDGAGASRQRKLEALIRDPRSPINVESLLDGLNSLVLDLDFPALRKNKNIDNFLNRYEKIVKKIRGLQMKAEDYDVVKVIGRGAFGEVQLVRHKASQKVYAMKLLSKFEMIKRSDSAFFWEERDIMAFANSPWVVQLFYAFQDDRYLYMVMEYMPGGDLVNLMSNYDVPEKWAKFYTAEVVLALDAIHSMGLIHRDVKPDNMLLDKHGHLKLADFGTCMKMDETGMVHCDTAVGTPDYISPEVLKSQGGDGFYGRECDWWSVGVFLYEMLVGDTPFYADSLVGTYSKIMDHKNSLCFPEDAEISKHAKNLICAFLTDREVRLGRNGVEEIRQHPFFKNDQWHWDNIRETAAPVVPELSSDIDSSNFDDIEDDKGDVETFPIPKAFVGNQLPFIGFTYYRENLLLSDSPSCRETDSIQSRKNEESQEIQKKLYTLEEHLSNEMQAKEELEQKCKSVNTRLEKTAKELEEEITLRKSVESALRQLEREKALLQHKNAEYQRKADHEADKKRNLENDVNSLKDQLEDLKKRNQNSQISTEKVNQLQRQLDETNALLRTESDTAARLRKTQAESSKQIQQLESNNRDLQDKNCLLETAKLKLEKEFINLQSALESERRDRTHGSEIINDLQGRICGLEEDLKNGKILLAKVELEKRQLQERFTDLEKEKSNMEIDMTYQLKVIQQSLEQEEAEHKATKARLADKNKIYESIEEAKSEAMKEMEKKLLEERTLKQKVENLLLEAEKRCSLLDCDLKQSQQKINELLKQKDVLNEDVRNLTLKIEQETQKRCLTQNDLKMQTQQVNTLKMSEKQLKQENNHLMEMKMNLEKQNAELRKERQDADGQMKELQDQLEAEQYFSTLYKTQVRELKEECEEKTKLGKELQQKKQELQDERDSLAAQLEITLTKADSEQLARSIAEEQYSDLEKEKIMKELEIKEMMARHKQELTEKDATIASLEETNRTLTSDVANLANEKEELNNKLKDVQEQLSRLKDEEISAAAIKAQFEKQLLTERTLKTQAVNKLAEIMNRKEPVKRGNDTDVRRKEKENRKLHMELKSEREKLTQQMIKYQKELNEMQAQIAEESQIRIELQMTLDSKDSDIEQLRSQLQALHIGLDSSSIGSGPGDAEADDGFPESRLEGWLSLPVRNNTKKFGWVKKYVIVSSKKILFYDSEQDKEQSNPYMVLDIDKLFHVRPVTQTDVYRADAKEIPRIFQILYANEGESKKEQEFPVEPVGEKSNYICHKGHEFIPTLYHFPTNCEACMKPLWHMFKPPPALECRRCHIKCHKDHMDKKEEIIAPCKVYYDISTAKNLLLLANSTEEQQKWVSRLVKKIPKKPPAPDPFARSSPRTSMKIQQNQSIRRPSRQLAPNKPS

Turning to `O=C(NCCN1CCCCC1)c1cccc(CNc2ncc(-c3ccncc3)c3c2CCO3)c1` [Example 30, N-(2-(piperidin-1-yl)ethyl)-3-(((7-(pyridin-4-yl)-2,3-dihydrofuro[3,2-c]pyridin-4-yl)amino)methyl)benzamide], in assay [1], the “Ratio (PKA/ROCK2)” value is on record as “*** (ratio≥10)”. Also, the inhibition constant Ki in assay [2] was 3 to 30 nM; in assay [3] it was 3 to 30 nM; in assay [4], not above 3 nM; in assay [5], not above 3 nM.
Consider `c1ccc(CNc2ncc(-c3ccncc3)c3c2CCO3)cc1` [Example A, N-Benzyl-7-(pyridin-4-yl)-2,3-dihydrofuro[3,2-c]pyridin-4-amine, reference compound], for which the “Ratio (PKA/ROCK2)” value in assay [1] is given as “* (ratio<5)”. The inhibitory constant (Ki) in assay [2], in assay [3], in assay [4] and in assay [5] was more than 30 nM each time.
Regarding `CNC(=O)c1cccc(CNc2ncc(-c3ccncc3)c3c2CCO3)c1` [Example 20, N-methyl-3-(((7-(pyridin-4-yl)-2,3-dihydrofuro[3,2-c]pyridin-4-yl)amino)methyl)benzamide], in assay [1], the “Ratio (PKA/ROCK2)” value was “*** (ratio≥10)”. Also, the inhibition constant Ki in assay [2], in assay [3], in assay [4] and in assay [5] was 3 to 30 nM each time.
As for `CN1CCN(CCCC(=O)Nc2cccc(CNc3ncc(-c4ccncc4)c4c3CCO4)c2)CC1` [Example 35, 4-(4-methylpiperazin-1-yl)-N-(3-(((7-(pyridin-4-yl)-2,3-dihydrofuro[3,2-c]pyridin-4-yl)amino)methyl)phenyl)butanamide], in assay [1], the “Ratio (PKA/ROCK2)” value is reported as “*** (ratio≥10)”. The Ki in assay [2], in assay [3], in assay [4] and in assay [5] was not above 3 nM each time.
As for `CN1CCc2sc(C(=O)Nc3cccc(CNc4ncc(-c5ccncc5)c5c4CCO5)c3)nc2C1` [Example 54, 5-methyl-N-(3-(((7-(pyridin-4-yl)-2,3-dihydrofuro[3,2-c]pyridin-4-yl)amino)methyl)phenyl)-4,5,6,7-tetrahydrothiazolo[4,5-c]pyridine-2-carboxamide], the “Ratio (PKA/ROCK2)” value in assay [1] is listed as “*** (ratio≥10)”. The inhibitory constant (Ki) in assay [2], in assay [3], in assay [4] and in assay [5] was not above 3 nM throughout.
As for `O=C(NCCN1CCOCC1)c1cccc(CNc2ncc(-c3ccncc3)c3c2CCO3)c1` [Example 28, N-(2-morpholinoethyl)-3-(((7-(pyridin-4-yl)-2,3-dihydrofuro[3,2-c]pyridin-4-yl)amino)methyl)benzamide], the “Ratio (PKA/ROCK2)” value in assay [1] is recorded as “*** (ratio≥10)”. The Ki in assay [2] is 3 to 30 nM; in assay [3] it was 3 to 30 nM; in assay [4], not above 3 nM; in assay [5], not above 3 nM.
`CN1CCn2nc(NC(=O)c3cccc(CNc4ncc(-c5ccncc5)c5c4CCO5)c3)cc2C1` [Example 21]: the Ki in assay [2], in assay [3], in assay [4] and in assay [5] was not above 3 nM each time.
With `O=C(Nc1ncc(CN2CCCC2)s1)c1cccc(CNc2ncc(-c3ccncc3)c3c2CCO3)c1` [Example 1, 3-(((7-(Pyridin-4-yl)-2,3-dihydrofuro[3,2-c]pyridin-4-yl)amino)methyl)-N-(5-(pyrrolidin-1-ylmethyl)thiazol-2-yl)benzamide], the Ki in assay [2], in assay [3], in assay [4] and in assay [5] was not above 3 nM each time.
Regarding `CN1CCc2nc(NC(=O)c3ccnc(CNc4ncc(-c5ccncc5)c5c4CCO5)c3)sc2C1` [Example 51, N-(5-methyl-4,5,6,7-tetrahydrothiazolo[5,4-c]pyridin-2-yl)-2-(((7-(pyridin-4-yl)-2,3-dihydrofuro[3,2-c]pyridin-4-yl)amino)methyl)isonicotinamide], the results for the inhibition constant Ki in assay [4] and in assay [5] were 3 to 30 nM and not above 3 nM, respectively.
For `CN1CCc2nc(NC(=O)c3cccc(CNc4ncc(-c5ccncc5)c5c4CCO5)c3)sc2C1` [Example 23, N-(5-methyl-4,5,6,7-tetrahydrothiazolo[5,4-c]pyridin-2-yl)-3-(((7-(pyridin-4-yl)-2,3-dihydrofuro[3,2-c]pyridin-4-yl)amino)methyl)benzamide], the Ki in assay [4] and in assay [5] was not above 3 nM each time.
For the compound `CN1CCC(CCNC(=O)c2cccc(CNc3ncc(-c4ccncc4)c4c3CCO4)c2)CC1` [Example 22, N-(2-(1-methylpiperidin-4-yl)ethyl)-3-(((7-(pyridin-4-yl)-2,3-dihydrofuro[3,2-c]pyridin-4-yl)amino)methyl)benzamide], the “Ratio (PKA/ROCK2)” value in assay [1] was “*** (ratio≥10)”. Further, the Ki in assay [2], in assay [3], in assay [4] and in assay [5] was not above 3 nM in each case.
Take `CC1CCN(CCC(=O)Nc2cccc(CNc3ncc(-c4ccncc4)c4c3CCO4)c2)CC1` [Example 32, 3-(4-Methylpiperidin-1-yl)-N-(3-(((7-(pyridin-4-yl)-2,3-dihydrofuro[3,2-c]pyridin-4-yl)amino)methyl)phenyl)propanamide]: the Ki in assay [4] and in assay [5] was 3 to 30 nM throughout.
On to `CN(C)CCn1ccc2cc(C(=O)Nc3cccc(CNc4ncc(-c5ccncc5)c5c4CCO5)c3)ccc21` [Example 39, 1-(2-(dimethylamino)ethyl)-N-(3-(((7-(pyridin-4-yl)-2,3-dihydrofuro[3,2-c]pyridin-4-yl)amino)methyl)phenyl)-1H-indole-5-carboxamide], for which the inhibitory constant (Ki) in assay [4] and in assay [5] was not above 3 nM throughout.
With `O=C(NCCc1ccncc1)c1cccc(CNc2ncc(-c3ccncc3)c3c2CCO3)c1` [Example 25, 3-(((7-(Pyridin-4-yl)-2,3-dihydrofuro[3,2-c]pyridin-4-yl)amino)methyl)-N-(2-(pyridin-4-yl)ethyl)benzamide], the Ki in assay [4] and in assay [5] was not above 3 nM each time.
With `O=C(Nc1cccc(CNc2ncc(-c3ccncc3)c3c2CCO3)c1)c1ccc(CN2CCOCC2)cc1` [Example 36, 4-(morpholinomethyl)-N-(3-(((7-(pyridin-4-yl)-2,3-dihydrofuro[3,2-c]pyridin-4-yl)amino)methyl)phenyl)benzamide], in assay [1], the “Ratio (PKA/ROCK2)” value is reported as “*** (ratio≥10)”. The inhibition constant Ki in assay [2], in assay [3], in assay [4] and in assay [5] was not above 3 nM each time.
